{"source": "patent US20230365592A1", "about": "(Agios Pharmaceuticals, Inc., priority 2022, published 2023)", "data": [{"target": "T1, human PAH with the R408W mutation (Homo sapiens, UniProt P00439, R408W)", "T1 construct": "expressed in transfected cells", "T1 sequence (P00439 1-452 R408W)": "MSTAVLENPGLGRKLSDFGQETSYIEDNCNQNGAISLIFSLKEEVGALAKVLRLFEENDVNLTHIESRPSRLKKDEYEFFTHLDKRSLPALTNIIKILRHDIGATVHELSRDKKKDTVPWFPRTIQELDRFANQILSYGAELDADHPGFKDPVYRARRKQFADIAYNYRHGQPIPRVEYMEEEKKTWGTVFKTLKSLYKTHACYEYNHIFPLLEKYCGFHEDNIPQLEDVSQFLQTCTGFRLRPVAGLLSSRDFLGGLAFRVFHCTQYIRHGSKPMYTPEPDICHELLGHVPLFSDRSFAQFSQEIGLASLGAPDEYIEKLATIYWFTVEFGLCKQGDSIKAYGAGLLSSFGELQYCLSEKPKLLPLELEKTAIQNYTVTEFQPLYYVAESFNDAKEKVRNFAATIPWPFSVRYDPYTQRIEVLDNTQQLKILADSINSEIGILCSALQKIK", "test": "Cell Based Phenylalanine Flux Assay;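 also: after compound treatment, cells received sepiapterin plus isotope-labelled Phenylalanine for 4 hours, then labelled Tyrosine in the medium was quantified, 10-point 2-fold dilution series run in duplicate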", "settings": "A375 cells expressing human R408W PAH; 24 hrs compound incubation; 13C-Tyrosine by LC-MS; average where tested multiple times; read-out: AC50", "units": {"AC50": "nM"}, "values": [{"smiles": "O=C(c1nnc(-c2cnn(S(=O)(=O)C3CC3)c2)o1)N1CCc2[nH]cnc2[C@@H]1c1cc2c(F)cccn2n1", "note": "[Example 835, (R)-(5-(1-(cyclopropylsulfonyl)-1H-pyrazol-4-yl)-1,3,4-oxadiazol-2-yl)(4-(4-fluoropyrazolo[1,5-a]pyridin-2-yl)-6,7-dihydro-1H-imidazo[4,5-c]pyridin-5(4H)-yl)methanone]", "AC50": "> 5000"}, {"smiles": "Cc1cccn2nc([C@@H]3c4nc[nH]c4CCN3C(=O)c3ncnn3C)cc12", "note": "[Example 838, (S)-(1-methyl-1H-1,2,4-triazol-5-yl)(4-(4-methylpyrazolo[1,5-a]pyridin-2-yl)-6,7-dihydro-1H-imidazo[4,5-c]pyridin-5(4H)-yl)methanone]", "AC50": "< 500"}, {"smiles": "Cn1ncnc1C(=O)N1CCc2[nH]cnc2[C@H]1c1cc2c(F)cccn2n1", "note": "[Example 840, (S)-(4-(4-fluoropyrazolo[1,5-a]pyridin-2-yl)-6,7-dihydro-1H-imidazo[4,5-c]pyridin-5(4H)-yl)(1-methyl-1H-1,2,4-triazol-5-yl)methanone]", "AC50": "500 to 1000"}, {"smiles": "Cn1ncnc1C(=O)N1CCc2[nH]cnc2[C@@H]1c1cc2c(F)cccn2n1", "note": "[Example 841, (R)-(4-(4-fluoropyrazolo[1,5-a]pyridin-2-yl)-6,7-dihydro-1H-imidazo[4,5-c]pyridin-5(4H)-yl)(1-methyl-1H-1,2,4-triazol-5-yl)methanone]", "AC50": "1000 to 5000"}, {"smiles": "O=C(c1ccnn1C(F)(F)F)N1CCc2[nH]cnc2[C@H]1c1cc2c(F)cccn2n1", "note": "[Example 842, (S)-(4-(4-fluoropyrazolo[1,5-a]pyridin-2-yl)-6,7-dihydro-1H-imidazo[4,5-c]pyridin-5(4H)-yl)(1-(trifluoromethyl)-1H-pyrazol-5-yl)methanone]", "AC50": "< 500"}, {"smiles": "O=C(c1ccnn1C(F)(F)F)N1CCc2[nH]cnc2[C@@H]1c1cc2c(F)cccn2n1", "note": "[Example 843, (R)-(4-(4-fluoropyrazolo[1,5-a]pyridin-2-yl)-6,7-dihydro-1H-imidazo[4,5-c]pyridin-5(4H)-yl)(1-(trifluoromethyl)-1H-pyrazol-5-yl)methanone]", "AC50": "1000 to 5000"}, {"smiles": "Cc1nn(C)cc1-c1nnc(C(=O)N2CCc3[nH]cnc3[C@H]2c2cc3c(C)cccn3n2)o1", "note": "[Example 844, (S)-(5-(1,3-dimethyl-1H-pyrazol-4-yl)-1,3,4-oxadiazol-2-yl)(4-(4-methylpyrazolo[1,5-a]pyridin-2-yl)-6,7-dihydro-1H-imidazo[4,5-c]pyridin-5(4H)-yl)methanone]", "AC50": "< 500"}, {"smiles": "Cc1nn(C)cc1-c1nnc(C(=O)N2CCc3[nH]cnc3[C@@H]2c2cc3c(C)cccn3n2)o1", "note": "[Example 845, (R)-(5-(1,3-dimethyl-1H-pyrazol-4-yl)-1,3,4-oxadiazol-2-yl)(4-(4-methylpyrazolo[1,5-a]pyridin-2-yl)-6,7-dihydro-1H-imidazo[4,5-c]pyridin-5(4H)-yl)methanone]", "AC50": "> 5000"}, {"smiles": "Cc1nn(C)cc1-c1nnc(C(=O)N2CCc3[nH]cnc3[C@H]2c2cc3c(F)cccn3n2)o1", "note": "[Example 846, (S)-(5-(1,3-dimethyl-1H-pyrazol-4-yl)-1,3,4-oxadiazol-2-yl)(4-(4-fluoropyrazolo[1,5-a]pyridin-2-yl)-6,7-dihydro-1H-imidazo[4,5-c]pyridin-5(4H)-yl)methanone]", "AC50": "< 500"}, {"smiles": "Cc1nn(C)cc1-c1nnc(C(=O)N2CCc3[nH]cnc3[C@@H]2c2cc3c(F)cccn3n2)o1", "note": "[Example 847, (R)-(5-(1,3-dimethyl-1H-pyrazol-4-yl)-1,3,4-oxadiazol-2-yl)(4-(4-fluoropyrazolo[1,5-a]pyridin-2-yl)-6,7-dihydro-1H-imidazo[4,5-c]pyridin-5(4H)-yl)methanone]", "AC50": "> 5000"}, {"smiles": "Cc1cccn2nc([C@@H]3c4nc[nH]c4CCN3C(=O)c3nnc(-c4ccncc4)o3)cc12", "note": "[Example 850, (S)-(4-(4-methylpyrazolo[1,5-a]pyridin-2-yl)-6,7-dihydro-1H-imidazo[4,5-c]pyridin-5(4H)-yl)(5-(pyridin-4-yl)-1,3,4-oxadiazol-2-yl)methanone]", "AC50": "< 500"}, {"smiles": "Cc1cccn2nc([C@H]3c4nc[nH]c4CCN3C(=O)c3nnc(-c4ccncc4)o3)cc12", "note": "[Example 851, (R)-(4-(4-methylpyrazolo[1,5-a]pyridin-2-yl)-6,7-dihydro-1H-imidazo[4,5-c]pyridin-5(4H)-yl)(5-(pyridin-4-yl)-1,3,4-oxadiazol-2-yl)methanone]", "AC50": "> 5000"}, {"smiles": "Cc1cccn2nc([C@@H]3c4nc[nH]c4CCN3C(=O)c3nnc(-c4cnn(S(=O)(=O)C5CC5)c4)o3)cc12", "note": "[Example 852, (S)-(5-(1-(cyclopropylsulfonyl)-1H-pyrazol-4-yl)-1,3,4-oxadiazol-2-yl)(4-(4-methylpyrazolo[1,5-a]pyridin-2-yl)-6,7-dihydro-1H-imidazo[4,5-c]pyridin-5(4H)-yl)methanone]", "AC50": "500 to 1000"}, {"smiles": "Cc1cccn2nc([C@@H]3c4nc[nH]c4CCN3C(=O)c3nnc(-c4cc(C)n(C)n4)o3)cc12", "note": "[Example 854, (S)-(5-(1,5-dimethyl-1H-pyrazol-3-yl)-1,3,4-oxadiazol-2-yl)(4-(4-methylpyrazolo[1,5-a]pyridin-2-yl)-6,7-dihydro-1H-imidazo[4,5-c]pyridin-5(4H)-yl)methanone]", "AC50": "< 500"}, {"smiles": "Cc1cccn2nc([C@H]3c4nc[nH]c4CCN3C(=O)c3nnc(-c4cc(C)n(C)n4)o3)cc12", "note": "[Example 855, (R)-(5-(1,5-dimethyl-1H-pyrazol-3-yl)-1,3,4-oxadiazol-2-yl)(4-(4-methylpyrazolo[1,5-a]pyridin-2-yl)-6,7-dihydro-1H-imidazo[4,5-c]pyridin-5(4H)-yl)methanone]", "AC50": "> 5000"}, {"smiles": "CC(C)n1nccc1C(=O)N1CCc2[nH]cnc2[C@H]1c1cc2ccccn2n1", "note": "[Example 856, (S)-(1-isopropyl-1H-pyrazol-5-yl)(4-(pyrazolo[1,5-a]pyridin-2-yl)-6,7-dihydro-1H-imidazo[4,5-c]pyridin-5(4H)-yl)methanone]", "AC50": "< 500"}, {"smiles": "CC(C)n1nccc1C(=O)N1CCc2[nH]cnc2[C@H]1c1cc2c(F)cccn2n1", "note": "[Example 858, (S)-(4-(4-fluoropyrazolo[1,5-a]pyridin-2-yl)-6,7-dihydro-1H-imidazo[4,5-c]pyridin-5(4H)-yl)(1-isopropyl-1H-pyrazol-5-yl)methanone]", "AC50": "< 500"}, {"smiles": "Cc1cccn2nc([C@@H]3c4nc[nH]c4CCN3C(=O)c3ccnn3C3CC3)cc12", "note": "[Example 860, (S)-(1-cyclopropyl-1H-pyrazol-5-yl)(4-(4-methylpyrazolo[1,5-a]pyridin-2-yl)-6,7-dihydro-1H-imidazo[4,5-c]pyridin-5(4H)-yl)methanone]", "AC50": "< 500"}, {"smiles": "Cc1cccn2nc([C@@H]3c4nc[nH]c4CCN3C(=O)c3ccnn3-c3ccccn3)cc12", "note": "[Example 862, (S)-(4-(4-methylpyrazolo[1,5-a]pyridin-2-yl)-6,7-dihydro-1H-imidazo[4,5-c]pyridin-5(4H)-yl)(1-(pyridin-2-yl)-1H-pyrazol-5-yl)methanone]", "AC50": "< 500"}, {"smiles": "Cn1nc(C(F)F)cc1C(=O)N1CCc2[nH]cnc2[C@H]1c1cc2c(F)cccn2n1", "note": "[Example 864, (S)-(3-(difluoromethyl)-1-methyl-1H-pyrazol-5-yl)(4-(4-fluoropyrazolo[1,5-a]pyridin-2-yl)-6,7-dihydro-1H-imidazo[4,5-c]pyridin-5(4H)-yl)methanone]", "AC50": "< 500"}, {"smiles": "Cn1cncc1-c1nc(C(F)F)c(C(=O)N2CCc3[nH]cnc3[C@@H]2c2cc3ccccn3n2)o1", "note": "[Example 868, (R)-(4-(difluoromethyl)-2-(1-methyl-1H-imidazol-5-yl)oxazol-5-yl)(4-(pyrazolo[1,5-a]pyridin-2-yl)-6,7-dihydro-1H-imidazo[4,5-c]pyridin-5(4H)-yl)methanone]", "AC50": "> 5000"}, {"smiles": "Cn1cncc1-c1nc(C(F)F)c(C(=O)N2CCc3[nH]cnc3[C@H]2c2cc3ccccn3n2)o1", "note": "[Example 869, (S)-(4-(difluoromethyl)-2-(1-methyl-1H-imidazol-5-yl)oxazol-5-yl)(4-(pyrazolo[1,5-a]pyridin-2-yl)-6,7-dihydro-1H-imidazo[4,5-c]pyridin-5(4H)-yl)methanone]", "AC50": "500 to 1000"}, {"smiles": "Cc1ccc(-c2nnc(C(=O)N3CCc4[nH]cnc4[C@@H]3c3cc4c(C)cccn4n3)o2)nc1", "note": "[Example 870, (R)-(4-(4-methylpyrazolo[1,5-a]pyridin-2-yl)-6,7-dihydro-1H-imidazo[4,5-c]pyridin-5(4H)-yl)(5-(5-methylpyridin-2-yl)-1,3,4-oxadiazol-2-yl)methanone]", "AC50": "> 5000"}, {"smiles": "Cc1ccc(-c2nnc(C(=O)N3CCc4[nH]cnc4[C@H]3c3cc4c(C)cccn4n3)o2)nc1", "note": "[Example 871, (S)-(4-(4-methylpyrazolo[1,5-a]pyridin-2-yl)-6,7-dihydro-1H-imidazo[4,5-c]pyridin-5(4H)-yl)(5-(5-methylpyridin-2-yl)-1,3,4-oxadiazol-2-yl)methanone]", "AC50": "< 500"}, {"smiles": "Cc1cccn2nc([C@H]3c4nc[nH]c4CCN3C(=O)c3nnc(-c4ccc(C(F)(F)F)cn4)o3)cc12", "note": "[Example 872, (R)-(4-(4-methylpyrazolo[1,5-a]pyridin-2-yl)-6,7-dihydro-1H-imidazo[4,5-c]pyridin-5(4H)-yl)(5-(5-(trifluoromethyl)pyridin-2-yl)-1,3,4-oxadiazol-2-yl)methanone]", "AC50": "> 5000"}, {"smiles": "Cc1cccn2nc([C@@H]3c4nc[nH]c4CCN3C(=O)c3nnc(-c4ccc(C(F)(F)F)cn4)o3)cc12", "note": "[Example 873, (S)-(4-(4-methylpyrazolo[1,5-a]pyridin-2-yl)-6,7-dihydro-1H-imidazo[4,5-c]pyridin-5(4H)-yl)(5-(5-(trifluoromethyl)pyridin-2-yl)-1,3,4-oxadiazol-2-yl)methanone]", "AC50": "500 to 1000"}]}]}
